Measurements reported in ChEMBL document CHEMBL2331106, “Discovery of 5-phenoxy-1,3-dimethyl-1H-pyrazole-4-carboxamides as potent agonists of TGR5 via sequential combinatorial libraries” (Bioorg Med Chem Lett, 2013).

How the values were obtained:
[1] = target: T1, G-protein coupled bile acid receptor 1 (Homo sapiens, UniProt Q8TDU6); experiment: Agonist activity at human TGR5 receptor in CHO cells assessed as elevation of cAMP level by uninduced cAMP detection method in absence of doxycycline; format: functional, cell-based
T1 sequence (Q8TDU6 whole entry): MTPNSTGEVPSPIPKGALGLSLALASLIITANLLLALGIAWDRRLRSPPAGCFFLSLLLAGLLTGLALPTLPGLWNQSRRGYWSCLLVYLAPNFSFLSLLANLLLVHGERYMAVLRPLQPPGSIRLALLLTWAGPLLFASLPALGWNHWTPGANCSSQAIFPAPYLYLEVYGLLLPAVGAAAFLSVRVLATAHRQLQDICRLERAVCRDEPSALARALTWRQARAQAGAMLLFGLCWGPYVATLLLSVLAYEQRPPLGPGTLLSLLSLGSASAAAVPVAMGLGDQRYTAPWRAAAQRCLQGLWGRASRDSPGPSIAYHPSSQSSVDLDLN

[2] = target: T1, G-protein coupled bile acid receptor 1; experiment: Agonist activity at doxycycline-promoter regulated overexpressed human TGR5 receptor in CHO cells assessed as elevation of cAMP level by induced-cAMP assay; format: functional, cell-based
[3] = Distribution coefficient, log D of the compound by shake flask method; format: physicochemical; conditions: octanol/water
[4] = species: Homo sapiens; experiment: Ex vivo activation of TGR5 in human PBMC assessed as elevation of cAMP level by cAMP assay
[5] = Intrinsic clearance in human liver microsomes; format: ADME, Microsome; conditions: read-out: CLH

Row | EC50 [1] [µM] | EC50 [2] [nM] | logD [3] | EC50 [4] [nM] | microsomal CLint [5] [µL/min/mg] | SMILES
1 | > 10 | 920 | 2.4 | – | – | Cc1nn(C)c(Oc2ccccc2)c1C(=O)N1CCCCC1c1cccnc1 (centres undefined)
2 | – | – | – | 379 | – | Cc1nn(C)c(Oc2cccc(Cl)c2Cl)c1C(=O)N1CCCC[C@@H]1c1cccnc1
3 | – | – | 3.6 | – | > 320 | Cc1ccc(N(C)C(=O)c2c(-c3ccccc3Cl)noc2C)cc1Cl
4 | > 10 | > 10000 | 1.4 | – | – | Cc1nn(C)c(Oc2cccnc2)c1C(=O)N1CCCCC1c1cccnc1 (centres undefined)
